This note sets out measurements from US20200371122A1, “BIOMARKER FOR SENESCENT CELLS” (Buck Institute for Research on Aging, priority 2017, published 2020).

The test system of assay [1] is C57BL6/J and p16-3MR mice injured with bleomycin. Description: Bleomycin-induced pulmonary fibrosis in mice. Format: in vivo, mouse.
Assay [2] has the same test system. Description: Bleomycin-induced pulmonary fibrosis in mice. In kind it is in vivo, mouse. The procedure:
RNA was extracted from cells or tissues using commercially available kits (Isolate II—Bioline for cells; Direct-zol—Zymo for tissues) according to the manufacturer's instructions. cDNA synthesis was performed using a High Capacity cDNA Reverse Transcription Kit (Thermo Fisher) according to the manufacturer's instructions. Quantitative PCR was performed on a LightCycler 480 II (Roche) using primers and probes designed for the Universal Probe Library. Primers and probes used for human transcripts were ACTB: 5′-CCAACCGCGAGAAGATGA (SEQ ID NO:1), 5′-TCCATCACGATGCCAGTG (SEQ ID NO:2), Probe #64; TUBA: 5′-cttcgtctccgccatcag (SEQ ID NO:3), 5′-ttgccaatctggacacca (SEQ ID NO:4), Probe #58; ALOX5: 5′-[…] (SEQ ID NO:5), 5′-[…] (SEQ ID NO:6), Probe #64; ALOX5AP: 5′-ggtctgcggggctacttt (SEQ ID NO:7), 5′-[…] (SEQ ID NO:8), Probe #18; ALOX12: 5′-[…] (SEQ ID NO:9), 5′-agccaggtcgtcaggag (SEQ ID NO:10), Probe #32; ALOX15: 5′-[…] (SEQ ID NO:11), 5′-[…] (SEQ ID NO:12), Probe #76; ALOX15B: 5′-[…] (SEQ ID NO:13), 5′-actgggaggcgaagaagg (SEQ ID NO:14), Probe #51; AKR1C1: 5′-catgcctgtcctgggattt (SEQ ID NO:15), 5′-[…] (SEQ ID NO:16), Probe #49; AKR1C2: 5′-ctatgcgcctgcagaggt (SEQ ID NO:17), 5′-[…] (SEQ ID NO:18), Probe #31; AKR1C3: 5′-[…] (SEQ ID NO:19), 5′-[…] (SEQ ID NO:20), Probe #78; CYSLTR2: 5′-[…] (SEQ ID NO:21), 5′-[…] (SEQ ID NO:22), Probe #18; DPEP1: 5′-gacgtcctgaggctggtg (SEQ ID NO:23), 5′-[…] (SEQ ID NO:24), Probe #9 (SEQ ID NO:25), ELOVL2: 5′-[…] (SEQ ID NO:26), 5′-[…] (SEQ ID NO:27), Probe #53; ELOVL4: 5′-catttggcccatggattc (SEQ ID NO:28), 5′-[…] (SEQ ID NO:29), Probe #31; ELOVL5: 5′-cccttccatgcgtccata (SEQ ID NO:30), 5′-[…] (SEQ ID NO:31), Probe #31; EPHX2: 5′-ttctgctggacaccctgaa (SEQ ID NO:32), 5′-[…] (SEQ ID NO:33), Probe #45; GPX4: 5′-ttcccgtgtaaccagttcg (SEQ ID NO:34), 5′-[…] (SEQ ID NO:35), Probe #36; LTA4H: 5′-ctgctctcacggtccagtc (SEQ ID NO:36), 5′-[…] (SEQ ID NO:37), Probe #64; LTBR2: 5′-[…] (SEQ ID NO:38), 5′-[…] (SEQ ID NO:39), Probe #33; LTC4S: 5′-[…] (SEQ ID NO:40), 5′-[…] (SEQ ID NO:41), Probe #18; PTGDS: 5′-[…] (SEQ ID NO:42), 5′-[…] (SEQ ID NO:43), Probe #36; PTGES: 5′-agagatgcctgcccacag (SEQ ID NO:44), 5′-tggccaccacgtacatctt (SEQ ID NO:45), Probe #4; PTGES2: 5′-[…] (SEQ ID NO:46), 5′-[…] (SEQ ID NO:47), Probe #49; PTGES3 (SEQ ID NO:48), 5′-[…] (SEQ ID NO:49), 5′-[…] (SEQ ID NO:50), Probe #48; PTGIS: 5′-[…] (SEQ ID NO:51), 5′-[…] (SEQ ID NO:52), Probe #45; PTGR1: 5′-atgatggggcagcaagtg (SEQ ID NO:53), 5′-cccatcagaaatggagtgc (SEQ ID NO:54), Probe #64; PTGS1: 5′-[…] (SEQ ID NO:55), 5′-gtggtggtccatgttcctg (SEQ ID NO:56), Probe #81; PTGS2: 5′-gatccccagggctcaaac (SEQ ID NO:57), 5′-[…] (SEQ ID NO:58), Probe #61; TBXAS1: 5′-[…] (SEQ ID NO:59), 5′-tgcctcccgtgtgaatct (SEQ ID NO:60), Probe #73; AREG: 5′-[…] (SEQ ID NO:61), 5′-[…] (SEQ ID NO:62), Probe #73; CCL2: 5′-AGTCTCTGCCGCCCTTCT (SEQ ID NO:63), 5′-GTGACTGGGGCATTGATTG (SEQ ID NO:64), Probe #40; CCL27: 5′-[…] (SEQ ID NO:65), 5′-gctgggtggcagtaggaat (SEQ ID NO:66), Probe #18; CXCL1: 5′-[…] (SEQ ID NO:67), 5′-[…] (SEQ ID NO:68), Probe #52; HGF: 5′-[…] (SEQ ID NO:69), 5′-[…] (SEQ ID NO:70), Probe #49; ILIA: 5′-[…] (SEQ ID NO:71), 5′-[…] (SEQ ID NO:72), Probe #6; IL1B: 5′-[…] (SEQ ID NO:73), 5′-[…] (SEQ ID NO:74), Probe #78; IL6: 5′-[…] (SEQ ID NO:75), 5′-gaaggcagcaggcaacac (SEQ ID NO:76), Probe #45; IL8: 5′-[…] (SEQ ID NO:77), 5′-atggttccttccggtggt (SEQ ID NO:78), Probe #72; IL10: 5′-[…] (SEQ ID NO:79), 5′-[…] (SEQ ID NO:80), Probe #67; MMP3: 5′-[…] (SEQ ID NO:81), 5′-[…] (SEQ ID NO:82), Probe #36; PDGFA: 5′-[…] (SEQ ID NO:83), 5′-[…] […]
The source holds these as a separate data set.

In another assay the test system is IL-6 secretion. In words: IL-6 ELISA on non-senescent cells treated with prostaglandins. The note with it: 10 μM, 10 days. Format: cell-based, human. The procedure:
Human fetal lung fibroblasts (IMR-90) were cultured in Dulbecco's modified eagle medium (DMEM) supplemented with 10% FBS and penicillin/streptomycin. LL 29 (AnHa) cells were obtained from the ATCC and growth to confluence using the ATCC protocol, but were subcultured as described for IMR-90 before initiation of all experiments. Quiescence was induced by replacing culture media with media containing 0.2% FBS. MCF-7 and MDA-MB-231 breast cancer cells were cultured in RPMI supplemented with 10% FBS and penicillin/streptomycin. All cells were cultured at 3% O2, and used between 25 and 40 population doublings. All cells were mycoplasma free.
3×10^4 cells in 12-well plates were treated as indicated in the text, and cultured in 0.5-1 ml serum-free DMEM for 24 hr. CM were collected and clarified at 2,000×g for 10 min. Supernatants were transferred to a tube; cells were trypsinized and counted. CM (2.5 μl) were analyzed by bead-based ELISAs (AlphaLISA, Perkin-Elmer) as instructed by the manufacturer and normalized to cell number.
On the technique in general: ELISA stands for enzyme-linked immunosorbent assay.

Setting [3] is: bleomycin-treated animals, day 14, ELISA.

For `CC1(C)CCC(c2ccc(Cl)cc2)=C(CN2CCN(c3ccc(C(=O)NS(=O)(=O)c4ccc(N[C@H](CCN5CCOCC5)CSc5ccccc5)c(S(=O)(=O)C(F)(F)F)c4)cc3)CC2)C1` [ABT-263, 4-[4-[[2-(4-chlorophenyl)-5,5-dimethylcyclohexen-1-yl]methyl]piperazin-1--yl]-N-[4-[[(2R)-4-morpholin-4-yl-1-phenylsulfanylbutan-2-yl]amino]-3-(tri-fluoromethylsulfonyl)phenyl]sulfonylbenzamide], the “histological staining of lungs with picrosirius red” value in assay [1] (21 days after bleomycin) is reported as “attenuation of the fibrotic response”. The “collagen content (hydroxyproline)” value in assay [1] (21 days after injury) is on record as “reduced”. Further, in assay [1] (setting [3]), the “cysteinyl leukotrienes in bronchioalveolar lavage fluid (BALF)” value is listed as “reduced” and the “prostaglandin E2 in bronchioalveolar lavage fluid (BALF)” value is reported as “reduced”. Besides, the “phosphorylation of cPLA2” value in assay [1] (bleomycin-treated mice, lung, day 14) is “lowered”. The “RNA levels of p16INK4a and p21WAF1 in lungs” value in assay [2] (14 days after bleomycin injury) is reported as “significantly attenuated”. The “collagen expression (Col3a1 and Col4a1)” value in assay [2] (bleomycin-injured mice, 21 days after injury as printed) is given as “reduced”. In assay [2] (bleomycin-injured mice, day 14), the “mRNA levels of Alox5, Ltc4s, Ptgs2, Ptgds, and Ptges in lungs” value is reported as “lowered these levels to those of PBS-treated animals”.

As for `CCCCC[C@H](O)/C=C/[C@H]1C=CC(=O)[C@@H]1C/C=C\CCCC(=O)O` [PGA2], in the assay with IL-6 secretion, the IL-6 secretion result was “elevated”.
